Consider 1 compound from patent US8299085B2, “Quinazoline derivatives” (Novartis AG, priority 2004, dated 2012).

In one assay the target is AMPA receptor. Description: [3H] CNQX binding test (AMPA-receptor binding), brain membranes. The settings on record: 5 nM [3H]-CNQX, 4° C., 40 min. The procedure: CNQX binding test (Honoré et al. Biochem. Pharmacol. 1989, 38: 3207-3212). This test is performed as follows:
Brain membranes: The animals are decapitated, the brain removed and homogenized in 10 volumes of ice-cold 10% sucrose with a glass/Teflon homogenizer at positions 5 for 30 sec. The membranes are centrifuged at 1000×g for 10 min, and the supernatant centrifuged at 20,000×g for 15 min. The resulting pellet is resuspended in 10 volumes of cold water with a tissue homogenizer (Brinkman Polytron) at position 5 for 15 sec and the suspension centrifuged at 8000×g for 10 min. The supernatant including the buffy layer is centrifuged at 40,000×g for 20 min, the pellet resuspended in 5 volumes of water and the suspension frozen (20-30 min in dry ice/methanol) and thawed (water-bath at 37° C.) twice. The suspension is centrifuged at 40,000×g for 20 min, the pellet resuspended in 50 mM HEPES/KOH, pH 7.5, and centrifuged at 40,000×g for 10 min. […]
Radioligand binding assay: It is performed using 96-well microtiterplates in a volume of 0.3 ml of 50 mM HEPES/KOH, pH 7.2, 100 μg membrane protein, 5 nM [^3H]-CNQX (NEN) and the compound to be tested. […] Two hundred μl of the scintillation fluid Microscint 20 (Packard) are added and the radioactivity is counted in a Packard Topcount scintillation counter at an efficiency of 40-45%. […]

The target in assay [1] is T1, rat GluR3-(flop) AMPA receptor (Rattus norvegicus, UniProt P19492).
T1 construct: expressed in transfected cells; host or cells: Xenopus laevis oocytes (cRNA injection)
T1 sequence (P19492 23-888): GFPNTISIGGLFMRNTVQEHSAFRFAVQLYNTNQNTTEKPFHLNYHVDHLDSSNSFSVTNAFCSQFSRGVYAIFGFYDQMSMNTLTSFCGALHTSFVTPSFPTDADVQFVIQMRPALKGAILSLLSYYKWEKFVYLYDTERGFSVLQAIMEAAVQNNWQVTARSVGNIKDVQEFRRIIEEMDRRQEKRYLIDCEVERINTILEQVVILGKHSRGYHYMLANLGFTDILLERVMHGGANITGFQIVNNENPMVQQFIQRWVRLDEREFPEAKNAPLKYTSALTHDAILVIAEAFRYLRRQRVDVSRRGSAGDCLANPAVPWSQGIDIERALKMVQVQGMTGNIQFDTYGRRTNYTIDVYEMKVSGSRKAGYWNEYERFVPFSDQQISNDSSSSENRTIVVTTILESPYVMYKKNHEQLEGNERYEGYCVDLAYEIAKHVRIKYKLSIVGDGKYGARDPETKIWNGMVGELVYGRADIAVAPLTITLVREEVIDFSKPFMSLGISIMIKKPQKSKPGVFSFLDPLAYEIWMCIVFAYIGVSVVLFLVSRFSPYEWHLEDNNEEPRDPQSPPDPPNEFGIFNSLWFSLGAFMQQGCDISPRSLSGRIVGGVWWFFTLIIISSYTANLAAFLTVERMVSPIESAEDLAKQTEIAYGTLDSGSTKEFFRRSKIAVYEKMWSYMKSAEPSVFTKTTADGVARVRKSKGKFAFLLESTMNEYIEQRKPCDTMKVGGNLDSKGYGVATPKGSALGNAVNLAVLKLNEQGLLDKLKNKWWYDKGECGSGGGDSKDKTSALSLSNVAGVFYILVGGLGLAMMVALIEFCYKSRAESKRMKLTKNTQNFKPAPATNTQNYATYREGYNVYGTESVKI
As to the kind of experiment: Functional test for AMPA-receptor activity, two electrode voltage clamp in Xenopus laevis oocytes. Format: cell-based. Conditions: Xenopus oocytes expressing rGluR3-(flop); read-out: IC50-value, antagonist at the rGluR3 AMPA receptor. The procedure:
For the determination of functional agonism or antagonism at the AMPA-receptor, experiments can be performed on Xenopus oocytes as previously described in detail (Urwyler et al., Mol. Pharmacol. 2001, 60, 963-971). Briefly, two electrode voltage clamp recordings are performed from Xenopus laevis oocytes expressing GluR3 AMPA receptors. Plasmids for the rat GluR3-(flop) (Hollmann et al., Science 1991, 252, 851-853) are linearized and transcribed into capped cRNA using an in vitro RNA synthesis kit (Ambion, Tex.) with T7 Polymerase. Stock solutions are kept in 70% ethanol. Before use, cRNA is precipitated and resuspended in DEPC-treated water. Oocytes are injected with RNA coding the rat GluR3-(flop) AMPA receptor. For recordings, oocytes are placed in a perfusion chamber with continuous gravity flow of frog Ringer's solution. For recordings from oocytes expressing rGluR3-(flop) receptors frog, Ringer's solution containing Mg^2+ (81 mM NaCl; 2.5 mM KCl; 1 mM CaCl2; 1 mM MgCl2, 2.5 mM NaHCO3, 5 mM HEPES, pH 7.4) is used. Test compounds are washed in with gravity.

On to `CN(C)c1cc2c(=O)n(NS(C)(=O)=O)c(=O)[nH]c2cc1[N+](=O)[O-]` [Example 4, N-(6-Dimethylamino-7-nitro-2,4-dioxo-1,4-dihydro-2H-quinazolin-3-yl)-methanesulfonamide], for which the IC50 at AMPA receptor was found to be 290 nM; in assay [1], 2300 nM.
